Results published in the supplement of paper PMC10307832.

What was measured:
Experiment in all cases: relative viability (nuclei count vs DMSO), 5 days (fraction); higher = more cells survive
[1] = compound: O[C@@H](COc1cccc2ncccc12)CN1CCN([C@@H]2c3ccccc3[C@@H]3[C@H](c4ccccc42)C3(F)F)CC1 [Zosuquidar] + CC(C)C[C@H](NC(=O)[C@H](Cc1ccccc1)NC(=O)c1cnccn1)B(O)O [Bortezomib] (partner 0.002 µM)
Outline: (§1)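 Medians of duplicate plates are given as relative viability. That measure is the nuclei count in treated wells divided by the count in vehicle wells. Counts were taken on 4× images of lung cancer cell lines in 1536-well plates, 5 days after pin-tool dosing the day after seeding with one drug alone or a fixed anchor-drug dose plus five library-drug doses (not always all listed) in √10 steps.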

[2] = compound: COc1cc2nccc(Oc3ccc(NC(=O)C4(C(=O)Nc5ccc(F)cc5)CC4)cc3)c2cc1OC [Cabozantinib] + Nc1ncn([C@H]2C[C@H](O)[C@@H](CO)O2)c(=O)n1 [Decitabine] (partner 2 µM)
Outline: as §1

[3] = compound: C1=CC(=CC=C1NC(=S)NNC2=C(C=C(C=C2[N+](=O)[O-])C(F)(F)F)[N+](=O)[O-])F [Kobe2602] + CCNC(=O)c1noc(-c2cc(C(C)C)c(O)cc2O)c1-c1ccc(CN2CCOCC2)cc1 [Luminespib] (partner 0.01 µM)
Outline: as §1

[4] = compound: COc1cc2nccc(Oc3ccc(NC(=O)C4(C(=O)Nc5ccc(F)cc5)CC4)cc3)c2cc1OC [Cabozantinib] + O=C(CCCCCCC(=O)Nc1ccccc1)NO [Vorinostat] (partner 1 µM)
Outline: as §1

Row | Cell Line | relative viability ([1]; first compound 0.01 µM) | relative viability ([1]; first compound 0.03162 µM) | relative viability ([1]; first compound 0.1 µM) | relative viability ([1]; first compound 0.3162 µM) | relative viability ([1]; first compound 1 µM) | relative viability ([2]; first compound 0.02 µM) | relative viability ([2]; first compound 0.06325 µM) | relative viability ([2]; first compound 0.2 µM) | relative viability ([2]; first compound 0.6325 µM) | relative viability ([2]; first compound 2 µM) | relative viability ([3]; first compound 0.2 µM) | relative viability ([3]; first compound 0.6325 µM) | relative viability ([3]; first compound 2 µM) | relative viability ([3]; first compound 6.325 µM) | relative viability ([3]; first compound 20 µM) | relative viability ([4]; first compound 0.02 µM) | relative viability ([4]; first compound 0.06325 µM) | relative viability ([4]; first compound 0.2 µM) | relative viability ([4]; first compound 0.6325 µM) | relative viability ([4]; first compound 2 µM)
1 | LCLC-103H | 1.02 | 1.03 | 0.836 | 1.23 | 0.926 | 0.716 | 0.791 | 0.722 | 0.721 | 0.748 | 0.908 | 1.03 | 0.935 | 0.913 | 0.765 | 0.762 | 0.906 | 0.892 | 0.791 | 0.736
2 | LOU-NH91 | 0.567 | 0.52 | 0.484 | 0.503 | 0.507 | 0.798 | 0.825 | 0.654 | 0.791 | 0.802 | 0.387 | 0.338 | 0.326 | 0.367 | 0.331 | 0.851 | 0.973 | 0.822 | 0.853 | 0.914
3 | LU99A | 1.09 | 1.14 | 1.22 | 1.34 | 1.37 | 0.843 | 1.01 | 0.854 | 0.787 | 0.882 | 0.281 | 0.29 | 0.227 | 0.2 | 0.343 | 0.413 | 0.524 | 0.574 | 0.456 | 0.647
4 | LXF-289 | 0.993 | 1.01 | 1.01 | 0.99 | 0.976 | 0.353 | 0.395 | 0.392 | 0.433 | 0.377 | 0.7 | 0.799 | 0.637 | 0.606 | 0.708 | 0.755 | 0.765 | 0.659 | 0.738 | 0.756
5 | NCI-H23 | 0.956 | 1.24 | 1.15 | 1.3 | 1.33 | – | 0.348 | 0.337 | 0.303 | 0.327 | 0.248 | 0.201 | 0.227 | 0.214 | 0.202 | – | 0.794 | 0.553 | 0.631 | 0.551
6 | NCI-H322M | 1.27 | 1.27 | 0.827 | 1.17 | 1.12 | 0.701 | 0.719 | 0.675 | 0.798 | 0.744 | 0.895 | 0.944 | 0.855 | 0.478 | 1.06 | 0.897 | 1.1 | 0.894 | 0.894 | 0.917
7 | NCI-H441 | 0.43 | 0.476 | 0.444 | – | 0.641 | 0.204 | 0.24 | 0.241 | 0.273 | 0.231 | 0.328 | 0.374 | 0.327 | 0.358 | 0.296 | 0.782 | 0.922 | 0.882 | 0.794 | 0.845
8 | NCI-H460 | 1.01 | 1.09 | 1.14 | 1.07 | 1.1 | 0.509 | 0.477 | 0.724 | 0.51 | 0.486 | 0.0275 | 0.0348 | 0.0337 | 0.0344 | 0.0251 | 0.893 | 0.818 | 0.68 | 0.635 | 0.741
9 | NCI-H520 | 0.54 | 0.591 | 0.565 | 0.743 | 0.729 | 0.525 | 0.602 | 0.519 | 0.547 | 0.504 | 0.256 | 0.193 | 0.224 | 0.206 | 0.215 | 0.719 | 0.64 | 0.715 | 0.598 | 0.688
10 | NCI-H596 | 0.985 | 1.09 | 0.718 | 1.02 | 1.01 | 1.06 | 1.39 | 1.07 | 1.01 | 0.98 | 1.03 | 0.922 | 1.03 | 0.844 | 0.873 | 0.628 | 0.812 | 0.677 | 1.5 | 0.6
11 | NCI-H647 | 1.01 | 0.882 | 1.27 | 1.1 | 0.996 | 0.383 | 0.534 | 0.441 | 0.433 | 0.391 | 0.259 | 0.188 | 0.152 | 0.112 | 0.225 | 0.621 | 0.734 | 0.696 | 0.43 | 0.496
12 | NCI-H650 | 0.858 | 0.863 | – | 1.01 | 0.919 | 0.315 | 0.372 | 0.45 | 0.338 | 0.304 | 0.754 | 0.897 | 0.796 | 0.748 | 0.717 | 0.412 | 0.489 | 0.458 | 0.721 | 0.414
13 | NCI-H661 | 0.875 | 0.702 | 0.628 | 1.12 | 0.949 | 0.6 | 0.608 | 0.563 | 0.632 | 0.69 | 0.945 | 0.904 | 0.948 | 0.946 | 0.9 | 0.783 | 0.856 | 0.879 | 0.809 | 0.935
14 | NCI-H727 | 0.876 | 0.938 | 0.708 | 0.787 | 0.828 | 0.595 | 0.976 | 0.881 | 0.865 | 0.907 | 0.581 | 0.516 | 0.4 | 0.407 | 0.414 | 0.935 | 1.36 | 1.23 | 1.28 | 1.22
15 | NCI-H838 | 0.824 | 0.605 | 0.749 | 0.813 | 0.884 | 0.485 | 0.479 | 0.435 | 0.469 | 0.438 | 0.353 | 0.395 | 0.308 | 0.268 | 0.278 | 0.744 | 0.765 | 0.713 | 0.665 | 0.667
16 | NCI-H1355 | 1.15 | 1.26 | 1.1 | 1.33 | 1.24 | 0.401 | 0.372 | 0.33 | 0.363 | 0.367 | 0.795 | 0.686 | 0.607 | 0.775 | 0.75 | 0.659 | 0.754 | 0.6 | 0.635 | 0.625
